Among the data in patent publication US10047087B2, “Substituted pyrazolo[1,5-A] pyridine as tropomyosin receptor kinase (TrK) inhibitors” (Dr. Reddy's Laboratories Ltd., priority 2011, dated 2018) are IC50 and half-life values, retold here.

In general, pIC50 refers to the IC50 on a negative log10 scale, so that one unit is a factor of ten. By half-life is commonly meant how long it takes for the measured level to halve. Low readings indicate rapid decline, high ones slow decline.

pIC50: −log10 of the molar value. Like-named read-outs stand apart in the source and are kept apart here. A value given as a limit tells only on which side of the number the result lay.

In one data set the target is T1, TrkA kinase (Homo sapiens, UniProt P04629).
T1 construct: purchased Upstate, USA
As to the kind of experiment: In vitro TrkA inhibitory activity using TR-FRET assay. In kind it is biochemical. To be noted: 5 ng TrkA, 500 μM ATP. Summed up:
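Kinase (5 ng) was preincubated with compound for 30 min at 20-35° C before adding 40 nM ULight poly GT and 500 μM ATP; stopped with EDTA after 30 min. Eu-anti-phosphotyrosine antibody (0.5 nM) was read at 615/665 nm with 1% DMSO final. Compounds showing >25% inhibition at 1 μM went to sigmoidal dose-response IC50 fitting.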

Data set [1] can be described thus: Metabolic stability using Human Liver Microsomes (HLM). In kind it is in vitro ADME. To be noted: pooled human liver microsomes, compound 1 μM, 0.3 mg/ml microsomal protein, 1 mM NADPH. As for the experimental part:
Stability Protocol: Metabolic Stability Using Rat Liver Microsomes (RLM) and Human Liver Microsomes (HLM).
This assay was performed using pooled male rat liver microsomes (In-house prepared as per SOP), Pooled Human liver microsomes (XENOTECH; Batch No— H0630-1110189)). The 100 μl reaction contains the compounds at 1 μM, 0.3 mg/ml microsomal protein and both the co-factors (1 mM NADPH) in buffer and the mixture was incubated at different time points (0, 15, 30, 45, 60, & 90 minutes). The reaction was stopped by the addition of equal volume of acetonitrile containing internal standard (Telmesartin). The precipitated protein was removed by centrifugation and the supernatant were analyzed LC/MS-MS method. The percent parent compound remaining was quantified by analysis using following formula (% parent compound remaining=(peak area at Time x/peak area at T0)×100. The intrinsic clearance was calculated using the following formula. CLint,app: (0.693/in vitro t½)(incubation volume/mg of microsomal protein)(45 mg microsomal protein/gram of liver)(20^a g of liver/kg body weight) • a: 20 and 45 g of liver/kg of body weight were used for human and rat, respectively (Lu C et al., DMD, 2006). Bio-analysis: It was performed in Multiple Reaction Monitoring mode (negative mode) using Applied Biosystems API 4000 coupled to Agilent Technologies 1100 series HPLC on a reverse phase column (Zorbax Eclipse XDB C18, 50×4.6 mm, 5 μm). Celecoxib was used as internal standard both in in-vitro and in-vivo experiments. Mobile phase used 0.05% […] water and acetonitrile (10:90) with a flow rate of 0.6 ml/minute. The injection volume was kept as 10 μl.
In general terms: Liver microsomes are vesicles of endoplasmic reticulum, rich in cytochrome P450 enzymes.

The mark [2] stands for this setting: read-out: TrkA inhibition in-vitro IC50.
Setting [3] is: both bounds given in nm, read-out: TrkA inhibitory activity in-vitro IC50.

T1 sequence (P04629 33-796): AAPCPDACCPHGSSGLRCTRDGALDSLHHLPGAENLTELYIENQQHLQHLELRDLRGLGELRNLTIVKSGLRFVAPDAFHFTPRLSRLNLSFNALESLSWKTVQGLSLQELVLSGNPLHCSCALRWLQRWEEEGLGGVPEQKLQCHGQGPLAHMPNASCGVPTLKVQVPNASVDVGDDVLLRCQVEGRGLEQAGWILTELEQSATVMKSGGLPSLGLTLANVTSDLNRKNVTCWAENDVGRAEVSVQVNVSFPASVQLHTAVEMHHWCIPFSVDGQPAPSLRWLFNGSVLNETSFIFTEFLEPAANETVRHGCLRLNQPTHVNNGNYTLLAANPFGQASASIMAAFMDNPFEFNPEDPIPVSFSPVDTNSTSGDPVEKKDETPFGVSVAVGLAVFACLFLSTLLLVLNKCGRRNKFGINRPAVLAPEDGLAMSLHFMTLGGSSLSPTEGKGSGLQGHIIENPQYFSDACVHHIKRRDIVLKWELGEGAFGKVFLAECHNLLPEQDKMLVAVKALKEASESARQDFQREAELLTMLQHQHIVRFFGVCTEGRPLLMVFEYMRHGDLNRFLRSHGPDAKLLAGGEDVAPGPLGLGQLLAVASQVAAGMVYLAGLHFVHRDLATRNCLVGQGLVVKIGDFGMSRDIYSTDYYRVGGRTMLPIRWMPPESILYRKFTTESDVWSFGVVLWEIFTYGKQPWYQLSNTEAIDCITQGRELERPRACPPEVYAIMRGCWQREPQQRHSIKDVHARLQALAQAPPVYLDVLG

Regarding `O=C(NS(=O)(=O)c1ccc2c(c1)OCO2)c1cnn2ccc(N3CCC[C@@H]3c3cc(F)ccc3F)cc12` [Example 35, (R)-N-(benzo[d][1,3]dioxol-5-ylsulfonyl)-5-(2-(2,5-difluorophenyl)pyrrolidin-1-yl)pyrazolo[1,5-a]pyridine-3-carboxamide], the pIC50 on TrkA kinase (setting [2]) was 7.00 to 7.30. The half-life at 1 μM in data set [1] was > 1.33 h.
For the compound `CC(C)(C)S(=O)(=O)NC(=O)c1cnn2ccc(N3CCCC3c3cc(F)cc4c3OCCO4)cc12` (single isomer, unassigned) [Example 50, N-(tert-butylsulfonyl)-5-(2-(7-fluoro-2,3-dihydrobenzo [b][1,4]dioxin-5-yl)pyrrolidin-1-yl)pyrazolo[1,5-a]pyridine-3-carboxamide], the pIC50 on TrkA kinase (setting [3]) is 6.30 to 7.00. Moreover, the half-life at 1 μM in data set [1] was > 1.33 h.
On to `CC(C)(C)S(=O)(=O)NC(=O)c1cnn2ccc(N3CCC[C@@H]3c3cc(F)ccc3OCC3CC3)cc12` [Example 46, (R)-N-(tert-butylsulfonyl)-5-(2-(2-(cyclopropylmethoxy)-5-fluorophenyl)pyrrolidin-1-yl)pyrazolo[1,5-a]pyridine-3-carboxamide], for which the pIC50 on TrkA kinase (setting [2]) was 7.00 to 7.30. The half-life at 1 μM in data set [1] is > 1.33 h.
For `CCN(C)S(=O)(=O)NC(=O)c1cnn2ccc(N3C[C@@H](F)C[C@@H]3c3cc(F)ccc3F)cc12` [Example 79, 5-((2R,4S)-2-(2,5-difluorophenyl)-4-fluoropyrrolidin-1-yl)-N-(N-ethyl-N-methylsulfamoyl) pyrazolo[1,5-a]pyridine-3-carboxamide], the pIC50 on TrkA kinase (setting [2]) is ≥ 7.30. Further, the half-life at 1 μM in data set [1] was > 1.33 h.
`N#Cc1cccc(S(=O)(=O)NC(=O)c2cnn3ccc(N4CCC[C@@H]4c4cc(F)ccc4F)cc23)c1` [Example 4, (R)-N-((3-cyanophenyl)sulfonyl)-5-(2-(2,5-difluorophenyl)pyrrolidin-1-yl)pyrazolo[1,5-a]pyridine-3-carboxamide]: the pIC50 on TrkA kinase (setting [2]) is 7.00 to 7.30. In data set [1], the half-life at 1 μM was > 1.33 h.
For the compound `CN(C)S(=O)(=O)NC(=O)c1cnn2ccc(N3C[C@@H](F)C[C@@H]3c3cc(F)ccc3F)cc12` [Example 78, 5-((2R,4S)-2-(2,5-difluorophenyl)-4-fluoropyrrolidin-1-yl)-N-(N,N-dimethylsulfamoyl) pyrazolo[1,5-a]pyridine-3-carboxamide], the negative logarithm of the IC50 (pIC50) at TrkA kinase (setting [2]) is ≥ 7.30. For the same compound, the half-life at 1 μM in data set [1] is > 1.33 h.
As for `O=C(NS(=O)(=O)c1ccc(F)cc1)c1cnn2ccc(N3CCC[C@@H]3c3cc(F)ccc3F)cc12` [Example 1, (R)-5-(2-(2,5-difluorophenyl)pyrrolidin-1-yl)-N-((4-fluorophenyl)sulfonyl)pyrazolo[1,5-a]pyridine-3-carboxamide], the pIC50 on TrkA kinase (setting [3]) is 6.30 to 7.00. In addition, in data set [1], the half-life at 1 μM is > 1.33 h.
In the same order, the values of `CC1OCCC1S(=O)(=O)NC(=O)c1cnn2ccc(N3CCC[C@@H]3c3cc(F)ccc3F)cc12` (stereo partly drawn) [Example 24, 5-((R)-2-(2,5-difluorophenyl)pyrrolidin-1-yl)-N-((2-methyltetrahydrofuran-3-yl)sulfonyl)pyrazolo[1,5-a] pyridine-3-carboxamide] are 6.30 to 7.00 and > 1.33 h.
Turning to `COc1ccc(S(=O)(=O)NC(=O)c2cnn3ccc(N4CCC[C@@H]4c4cc(F)ccc4F)cc23)cn1` [Example 26, (R)-5-(2-(2,5-difluorophenyl)pyrrolidin-1-yl)-N-((6-methoxypyridin-3-yl)sulfonyl) pyrazolo[1,5-a]pyridine-3-carboxamide], at TrkA kinase (setting [2]), the pIC50 is 7.00 to 7.30. Besides, the half-life at 1 μM in data set [1] is > 1.33 h.
In the case of `CCCS(=O)(=O)NC(=O)c1cnn2ccc(N3CCC[C@@H]3c3cc(F)ccc3F)cc12` [Example 10, (R)-5-(2-(2,5-difluorophenyl)pyrrolidin-1-yl)-N-(propylsulfonyl)pyrazolo[1,5-a] pyridine-3-carboxamide], the negative-log IC50 (pIC50) on TrkA kinase (setting [2]) is ≥ 7.30. Moreover, in data set [1], the half-life at 1 μM was > 1.33 h.
On to `CC(C)(C)S(=O)(=O)NC(=O)c1cnn2ccc(N3CCC[C@@H]3c3cc(F)ccc3F)cc12` [Example 2, (R)-N-(tert-butylsulfonyl)-5-(2-(2,5-difluorophenyl)pyrrolidin-1-yl) pyrazolo[1,5-a]pyridine-3-carboxamide], for which the negative logarithm of the IC50 (pIC50) on TrkA kinase (setting [2]) was ≥ 7.30. Further, the half-life at 1 μM in data set [1] is > 1.33 h.
As to `CCN(C)S(=O)(=O)NC(=O)c1cnn2ccc(N3CCC[C@@H]3c3cc(F)ccc3F)cc12` [Example 77, (R)-5-(2-(2,5-difluorophenyl)pyrrolidin-1-yl)-N-(N-ethyl-N-methylsulfamoyl) pyrazolo[1,5-a]pyridine-3-carboxamide], on TrkA kinase (setting [2]), the pIC50 was ≥ 7.30. For the same compound, the half-life at 1 μM in data set [1] is > 1.33 h.
